The results in this text go back to patent US20260028354A1, “TETRAHYDRONAPHTHALENE DERIVATIVES AS ESTROGEN RECEPTOR DEGRADERS” (REGENT OF THE UNIVERSITY OF MICHIGAN, priority 2022, published 2026).

Where two headings read alike, the source gives them in different places.

Assay [1] concerns MCF-7 cells. Kind of assay: CellTiter-Glo (CTG) cell proliferation assay in MCF-7 cells. In kind it is cell-based. The following applies: Homo sapiens, MCF7, 144 h, MCF-7 cell proliferation, Day 6. The source says:
CellTiter-Glo® (CTG) Assays in MCF-7 and T47D Cell Lines.
In vitro Assay: MCF-7 and T47D CTG assay

In assay [2] the target is ER in MCF-7 cells (Homo sapiens (Human), UniProt P03372). Kind of assay: In-cell Western (ICW) ER degradation assay in MCF-7 cells. It counts as cell-based. Particulars: for DC50: MCF-7, ER degradation, read-out: MCF7 DC50.
Setting [3] is: MCF7, read-out: MCF7 Dmax, MCF-7, maximal ER degradation, 16 hrs treatment.
Where [4] appears, read: MCF7, MCF-7, maximal ER degradation, 16 hrs treatment, read-out: MCF7 Dmax.

ER in MCF-7 cells, sequence (P03372 whole entry): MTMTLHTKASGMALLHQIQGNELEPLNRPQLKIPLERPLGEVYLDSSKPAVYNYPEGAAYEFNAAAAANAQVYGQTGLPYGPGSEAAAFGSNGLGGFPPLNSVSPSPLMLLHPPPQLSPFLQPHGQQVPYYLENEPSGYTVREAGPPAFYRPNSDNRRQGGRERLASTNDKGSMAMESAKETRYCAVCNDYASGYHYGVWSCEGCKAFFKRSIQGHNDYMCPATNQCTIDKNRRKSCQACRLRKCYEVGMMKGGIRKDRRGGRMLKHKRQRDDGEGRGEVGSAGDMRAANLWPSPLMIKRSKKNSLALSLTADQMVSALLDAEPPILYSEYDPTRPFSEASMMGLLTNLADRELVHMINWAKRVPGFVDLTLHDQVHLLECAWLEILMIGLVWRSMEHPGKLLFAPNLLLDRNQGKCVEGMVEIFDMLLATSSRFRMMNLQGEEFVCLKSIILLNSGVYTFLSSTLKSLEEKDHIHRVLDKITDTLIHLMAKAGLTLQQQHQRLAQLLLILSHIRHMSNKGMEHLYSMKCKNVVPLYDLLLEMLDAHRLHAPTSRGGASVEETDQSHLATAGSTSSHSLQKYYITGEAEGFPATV

In assay [1], `O=C1CC[C@H](N2Cc3c(ccc4c3OCC43CCN(CC4CC5(CCN(c6ccc([C@@H]7c8ccc(O)cc8CC[C@@H]7c7ccccc7)cc6)CC5)C4)CC3)C2=O)C(=O)N1` [Compound A181, (S)-3-(1′-((7-(4-((1R,2S)-6-hydroxy-2-phenyl-1,2,3,4-tetra-hydronaphthalen-1-yl)phenyl)-7-azaspiro[3.5]nonan-2-yl)-methyl)-6-oxo-6,8-dihydro-2H, 7H-spiro[furo[2,3-e]isoindole-3,4′-piperidin]-7-yl)piperidine-2,6-dione] had an IC50 above 100 nM. Also, the Dmax in assay [2] (setting [3]) was above 75%. The DC50 in assay [2] (16 hrs treatment) is below 1 nM.

In turn, `COc1cc(N2CCC(CCN3CCN4c5ccc6c(c5OC[C@H]4C3)CN([C@H]3CCC(=O)NC3=O)C6=O)CC2)c(F)cc1[C@@H]1c2ccc(O)cc2CC[C@@H]1c1ccccc1` [Compound A180, (S)-3-((R)-7-(2-(1-(2-fluoro-4-((1S,2S)-6-hydroxy-2-phenyl-1,2,3,4-tetrahydronaphthalen-1-yl)-5-methoxyphenyl)piper-idin-4-yl)ethyl)-1-oxo-1,3,5,5a, 6,7,8,9-octahydro-2H-pyrazino [1′,2′:4,5][1,4]oxazino[2,3-e]isoindol-2-yl)piperidine-2,6-dione] had a concentration for half-maximal inhibition (IC50) in assay [1] above 100 nM. For the same compound, the Dmax in assay [2] (setting [4]) was above 75%. For the same compound, the DC50 in assay [2] (16 hrs treatment) was below 1 nM.

Take `COc1cc(N2CCC(CCN3CCN4c5cc6c(cc5OC[C@@H]4C3)C(=O)N([C@H]3CCC(=O)NC3=O)C6)CC2)c(F)cc1[C@@H]1c2ccc(O)cc2CC[C@@H]1c1ccccc1` [Compound A188, (S)-3-((S)-3-(2-(1-(2-fluoro-4-((1S,2S)-6-hydroxy-2-phenyl-1,2,3,4-tetrahydronaphthalen-1-yl)-5-methoxyphenyl)piper-idin-4-yl)ethyl)-8-oxo-1,2,3,4,4a,5,8,10-octahydro-9H-pyr-azino[1′,2′:4,5][1,4]oxazino [2,3-f]isoindol-9-yl)piperidine-2,6-dione]: in assay [1], the IC50 is 10 to 100 nM. Further, in assay [2] (setting [4]), the maximal degradation (Dmax) is above 75%. In assay [2] (16 hrs treatment), the DC50 was below 1 nM.

In turn, `COc1cc(N2CC(CCN3CCN4c5ccc6c(c5OC[C@H]4C3)CN([C@H]3CCC(=O)NC3=O)C6=O)C2)c(F)cc1[C@@H]1c2ccc(O)cc2CC[C@@H]1c1ccccc1` [Compound A204, (S)-3-((R)-7-(2-(1-(2-fluoro-4-((1S,2S)-6-hydroxy-2-phenyl-1,2,3,4-tetrahydronaphthalen-1-yl)-5-methoxyphenyl)azet-idin-3-yl)ethyl)-1-oxo-1,3,5,5a, 6,7,8,9-octahydro-2H-pyrazino [1′,2′:4,5][1,4]oxazino[2,3-e]isoindol-2-yl)piperidine-2,6-dione] gave a half-inhibitory concentration (IC50) in assay [1] above 100 nM. Moreover, the Dmax in assay [2] (setting [4]) is 50 to 75%. The DC50 in assay [2] (16 hrs treatment) was 1 to 10 nM.

On to `O=C1CC[C@H](N2Cc3c4c(cc(Cl)c3C2=O)C2(CCN(C[C@@H]3CCC5(CCN(c6ccc([C@@H]7c8ccc(O)cc8CC[C@@H]7c7ccccc7)cc6)CC5)OC3)CC2)CO4)C(=O)N1` [Compound A233, (S)-3-(5-chloro-1′-(((S)-9-(4-((1R,2S)-6-hydroxy-2-phenyl-1,2,3,4-tetrahydronaphthalen-1-yl)phenyl)-1-oxa-9-azaspiro[5.5]undecan-3-yl)methyl)-6-oxo-6,8-dihydro-2H,7H-spiro[furo[2,3-e]isoindole-3,4′-piperidin]-7-yl)piperidine-2,6-dione], for which, in assay [1], the IC50 is below 10 nM. Moreover, in assay [2] (setting [3]), the Dmax was above 75%. In assay [2] (16 hrs treatment), the DC50 was below 1 nM.

For the compound `COc1cc(N2CCC3(CC[C@H](CN4CCC5(CC4)COc4c5cc(Cl)c5c4CN([C@H]4CCC(=O)NC4=O)C5=O)CO3)CC2)c(F)cc1[C@@H]1c2ccc(O)cc2CC[C@@H]1c1ccccc1` [Compound A232, (S)-3-(5-chloro-1′-(((R)-9-(2-fluoro-4-((1S,2S)-6-hydroxy-2-phenyl-1,2,3,4-tetrahydronaphthalen-1-yl)-5-methoxyphenyl)-1-oxa-9-azaspiro[5.5]undecan-3-yl)methyl)-6-oxo-6,8-dihydro-2H,7H-spiro[furo[2,3-e]isoindole-3,4′-piperidin]-7-yl)piperidine-2,6-dione], the concentration for half-maximal inhibition (IC50) in assay [1] was below 10 nM. Further, the Dmax in assay [2] (setting [3]) is above 75%. Moreover, the half-maximal degradation concentration (DC50) in assay [2] (16 hrs treatment) was below 1 nM.

On to `O=C1CC[C@H](N2Cc3c(ccc4c3OC[C@H]3CN(CC5CC6(CCN(c7cnc(C8c9ccc(O)cc9CCC8c8ccccc8)cn7)CC6)C5)CCN43)C2=O)C(=O)N1` (stereo partly drawn) [Compound A195, (3S)-3-((5aR)-7-((7-(5-(6-hydroxy-2-phenyl-1,2,3,4-tetra-hydronaphthalen-1-yl)pyrazin-2-yl)-7-azaspiro[3.5]nonan-2-yl)methyl)-1-oxo-1,3,5,5a,6,7,8,9-octahydro-2H-pyrazino [1′,2′:4,5][1,4]oxazino[2,3-e]isoindol-2-yl)piperidine-2,6-dione], for which the IC50 in assay [1] is above 100 nM. The Dmax in assay [2] (setting [4]) was above 75%. In assay [2] (16 hrs treatment), the DC50 is below 1 nM.

With `COc1c([C@@H]2c3ccc(O)cc3CC[C@@H]2c2ccccc2)ccc(N2CCC3(CC2)CC(CN2CCN4c5ccc6c(c5OC[C@H]4C2)CN([C@H]2CCC(=O)NC2=O)C6=O)C3)c1F` [Compound A196, (S)-3-((R)-7-((7-(2-fluoro-4-((1S,2S)-6-hydroxy-2-phenyl-1,2,3,4-tetrahydronaphthalen-1-yl)-3-methoxyphenyl)-7-aza-spiro[3.5]nonan-2-yl)methyl)-1-oxo-1,3,5,5a,6,7,8,9-octa-hydro-2H-pyrazino[1′,2′:4,5] [1,4]oxazino[2,3-e]isoindol-2-yl)piperidine-2,6-dione], the IC50 in assay [1] is below 10 nM. The Dmax in assay [2] (setting [4]) was above 75%. The DC50 in assay [2] (16 hrs treatment) was below 1 nM.

For `O=C1CC[C@H](N2Cc3cc4c(cc3C2=O)OC[C@@H]2CN(CC3CC5(CCN(c6cnc(C7c8ccc(O)cc8CCC7c7ccccc7)cn6)CC5)C3)CCN42)C(=O)N1` (stereo partly drawn) [Compound A194, (3S)-3-((4aS)-3-((7-(5-(6-hydroxy-2-phenyl-1,2,3,4-tetra-hydronaphthalen-1-yl)pyrazin-2-yl)-7-azaspiro[3.5]nonan-2-yl)methyl)-8-oxo-1,2,3,4,4a,5,8,10-octahydro-9H-pyrazino [1′,2′:4,5][1,4]oxazino[2,3-f]isoindol-9-yl)piperidine-2,6-dione], the IC50 in assay [1] was above 100 nM. Moreover, the greatest degradation seen (Dmax) in assay [2] (setting [4]) was above 75%. Further, the 50% degradation concentration (DC50) in assay [2] (16 hrs treatment) was 1 to 10 nM.

Regarding `COc1cc(N2CCC3(CC2)CC(CN2CCC4(CC2)COc2c4cc(Cl)c4c2CN([C@H]2CCC(=O)NC2=O)C4=O)C3)c(F)cc1[C@@H]1c2ccc(O)cc2CC[C@@H]1c1ccccc1` [Compound A200, (S)-3-(5-chloro-1′-((7-(2-fluoro-4-((1S,2S)-6-hydroxy-2-phenyl-1,2,3,4-tetrahydro-naphthalen-1-yl)-5-methoxy-phenyl)-7-azaspiro[3.5]nonan-2-yl)methyl)-6-oxo-6,8-dihydro-2H,7H-spiro[furo[2,3-e]isoindole-3,4′-piperidin]-7-yl)piperidine-2,6-dione], in assay [1], the concentration for half-maximal inhibition (IC50) is below 10 nM. In addition, in assay [2] (setting [3]), the Dmax is above 75%. In addition, the DC50 in assay [2] (16 hrs treatment) was below 1 nM.
